Measurements as given in EP2951180B1, “2,6,7,8 SUBSTITUTED PURINES AS HDM2 INHIBITORS” (Merck Sharp & Dohme Corp., priority 2013, dated 2014).
pIC50: −log10 of the molar value.

target: T1, HDM2 (Homo sapiens, UniProt Q00987); experiment: HDM2 FRET assay (inhibition of binding of FITC labeled p53-pocket peptide to HDM2); details: Table 9; read-out: FRET IC50
T1 construct: Thioredoxin (N); made in house; host or cells: E. coli strain BL21(DE3)Rosetta
Outline: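 Displacement of FITC-p53 peptide (3 nM) from His-tagged HDM2 (0.5 nM) is measured by Tb-to-fluorescein FRET in PBS, 0.01% BSA, 0.01% Tween-20. IC50 values derive from 10-point curves.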

T1 sequence (Q00987 17-125): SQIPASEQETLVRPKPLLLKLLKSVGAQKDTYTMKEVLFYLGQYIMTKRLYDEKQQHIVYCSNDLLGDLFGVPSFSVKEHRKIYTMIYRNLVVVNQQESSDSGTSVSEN

Structure (SMILES) | pIC50
C[C@@H](Nc1nc(-c2noc(=O)[nH]2)nc2nc(N(C)CCCN3CCCC3)n(Cc3ccc(C(F)(F)F)cc3)c12)C1CCC1 [Example 9.100, 3-(6-{[(1R)-1-cyclobutylethyl]amino}-8-[methyl(3-pyrrolidin-1-ylpropyl)amino]-7-[4-(trifluoromethyl)benzyl]-7H-purin-2-yl)-1,2,4-oxadiazol-5(4H)-one] | 6.83
CC(C)CC1COCCN1c1nc2nc(-c3noc(=O)[nH]3)nc(N[C@H](C)C3CCC3)c2n1Cc1ccc(C(F)(F)F)cc1 (stereo partly drawn) [Example 9.101, 3-(6-{[(1R)-1-cyclobutylethyl]amino}-8-[3-(2-methylpropyl)morpholin-4-yl]-7-[4-(trifluoromethyl)benzyl]-7H-purin-2-yl)-1,2,4-oxadiazol-5(4H)-one] | 8.01
C[C@@H](Nc1nc(-c2noc(=O)[nH]2)nc2nc(N(C)C3CCc4ccccc43)n(Cc3ccc(C(F)(F)F)cc3)c12)C1CCC1 (stereo partly drawn) [Example 9.102, 3-(6-{[(1R)-1-cyclobutylethyl]amino}-8-[2,3-dihydro-1H-inden-1-yl(methyl)amino]-7-[4-(trifluoromethyl)benzyl]-7H-purin-2-yl)-1,2,4-oxadiazol-5(4H)-one] | 7.22
C[C@@H](Nc1nc(-c2noc(=O)[nH]2)nc2nc(N3CCCC3C3CCCCC3)n(Cc3ccc(C(F)(F)F)cc3)c12)C1CCC1 (stereo partly drawn) [Example 9.103, 3-(6-{[(1R)-1-cyclobutylethyl]amino}-8-(2-cyclohexylpyrrolidin-1-yl)-7-[4-(trifluoromethyl)benzyl]-7H-purin-2-yl)-1,2,4-oxadiazol-5(4H)-one] | 7.50
CC(CN1CCCC1)CN(C)c1nc2nc(-c3noc(=O)[nH]3)nc(N[C@H](C)C3CCC3)c2n1Cc1ccc(C(F)(F)F)cc1 (stereo partly drawn) [Example 9.104, 3-(6-{[(1R)-1-cyclobutylethyl]amino}-8-[methyl(2-methyl-3-pyrrolidin-1-ylpropyl)amino]-7-[4-(trifluoromethyl)benzyl]-7H-purin-2-yl)-1,2,4-oxadiazol-5(4H)-one] | 7.20
C[C@@H](Nc1nc(-c2noc(=O)[nH]2)nc2nc(N3CCCC3Cc3cccnc3)n(Cc3ccc(C(F)(F)F)cc3)c12)C1CCC1 (stereo partly drawn) [Example 9.105, 3-(6-{[(1R)-1-cyclobutylethyl]amino}-8-[2-(pyridin-3-ylmethyl)pyrrolidin-1-yl]-7-[4-(trifluoromethyl)benzyl]-7H-purin-2-yl)-1,2,4-oxadiazol-5(4H)-one] | 7.85
C[C@@H](Nc1nc(-c2noc(=O)[nH]2)nc2nc(N3CCCCC3c3nccn3C)n(Cc3ccc(C(F)(F)F)cc3)c12)C1CCC1 (stereo partly drawn) [Example 9.106, 3-(6-{[(1R)-1-cyclobutylethyl]amino}-8-[2-(1-methyl-1H-imidazol-2-yl)piperidin-1-yl]-7-[4-(trifluoromethyl)benzyl]-7H-purin-2-yl)-1,2,4-oxadiazol-5(4H)-one] | 7.94
Cc1noc(C2CCCCN2c2nc3nc(-c4noc(=O)[nH]4)nc(N[C@H](C)C4CCC4)c3n2Cc2ccc(C(F)(F)F)cc2)n1 (stereo partly drawn) [Example 9.107, 3-(6-{[(1R)-1-cyclobutylethyl]amino}-8-[2-(3-methyl-1,2,4-oxadiazol-5-yl)piperidin-1-yl]-7-[4-(trifluoromethyl)benzyl]-7H-purin-2-yl)-1,2,4-oxadiazol-5(4H)-one] | 8.29
CC(C)CN1CCC(CN(C)c2nc3nc(-c4noc(=O)[nH]4)nc(N[C@H](C)C4CCC4)c3n2Cc2ccc(C(F)(F)F)cc2)C1 (stereo partly drawn) [Example 9.108, 3-(6-{[(1R)-1-cyclobutylethyl]amino}-8-(methyl{[1-(2-methylpropyl)pyrrolidin-3-yl]methyl}amino)-7-[4-(trifluoromethyl)benzyl]-7H-purin-2-yl)-1,2,4-oxadiazol-5(4H)-one] | 6.84
C[C@@H](Nc1nc(-c2noc(=O)[nH]2)nc2nc(N3CCCCC3Cc3ccccc3)n(Cc3ccc(C(F)(F)F)cc3)c12)C1CCC1 (stereo partly drawn) [Example 9.109, 3-{8-(2-benzylpiperidin-1-yl)-6-{[(1R)-1-cyclobutylethyl]amino}-7-[4-(trifluoromethyl)benzyl]-7H-purin-2-yl}-1,2,4-oxadiazol-5(4H)-one] | 7.22
CC1CCCCN1c1nc2nc(-c3noc(=O)[nH]3)nc(N[C@H](C)C3CCC3)c2n1Cc1ccc(C(F)(F)F)cc1 (stereo partly drawn) [Example 9.110, 3-(6-{[(1R)-1-cyclobutylethyl]amino}-8-(2-methylpiperidin-1-yl)-7-[4-(trifluoromethyl)benzyl]-7H-purin-2-yl)-1,2,4-oxadiazol-5(4H)-one] | 7.99
COCC1CCCCN1c1nc2nc(-c3noc(=O)[nH]3)nc(N[C@H](C)C3CCC3)c2n1Cc1ccc(C(F)(F)F)cc1 (stereo partly drawn) [Example 9.111, 3-(6-{[(1R)-1-cyclobutylethyl]amino}-8-[2-(methoxymethyl)piperidin-1-yl]-7-[4-(trifluoromethyl)benzyl]-7H-purin-2-yl)-1,2,4-oxadiazol-5(4H)-one] | 8.06
C[C@@H](Nc1nc(-c2noc(=O)[nH]2)nc2nc(N3CCCCC3c3ccc(F)cc3)n(Cc3ccc(C(F)(F)F)cc3)c12)C1CCC1 (stereo partly drawn) [Example 9.112, 3-(6-{[(1R)-1-cyclobutylethyl]amino}-8-[2-(4-fluorophenyl)piperidin-1-yl]-7-[4-(trifluoromethyl)benzyl]-7H-purin-2-yl)-1,2,4-oxadiazol-5(4H)-one] | 8.02
C[C@@H](Nc1nc(-c2noc(=O)[nH]2)nc2nc(N3CCCCC3c3cccc(F)c3)n(Cc3ccc(C(F)(F)F)cc3)c12)C1CCC1 (stereo partly drawn) [Example 9.113, 3-(6-{[(1R)-1-cyclobutylethyl]amino}-8-[2-(3-fluorophenyl)piperidin-1-yl]-7-[4-(trifluoromethyl)benzyl]-7H-purin-2-yl)-1,2,4-oxadiazol-5(4H)-one] | 7.59
C[C@@H](Nc1nc(C(=O)O)nc2nc(N3CCCCC3c3cccnc3)n(Cc3ccc(C(F)(F)F)cc3)c12)C1CCC1 (stereo partly drawn) [Example 9.114, 6-{[(1R)-1-cyclobutylethyl]amino}-8-(2-pyridin-3-ylpiperidin-1-yl)-7-[4-(trifluoromethyl)benzyl]-7H-purine-2-carboxylic acid] | 6.96
C[C@@H](Nc1nc(C(=O)O)nc2nc(N3CCCCC3c3ccncc3)n(Cc3ccc(C(F)(F)F)cc3)c12)C1CCC1 (stereo partly drawn) [Example 9.115, 6-{[(1R)-1-cyclobutylethyl]amino}-8-(2-pyridin-4-ylpiperidin-1-yl)-7-[4-(trifluoromethyl)benzyl]-7H-purine-2-carboxylic acid] | 7.78
C[C@@H](Nc1nc(C(=O)O)nc2nc(N3CCCCC3c3cccc(F)c3)n(Cc3ccc(C(F)(F)F)cc3)c12)C1CCC1 (stereo partly drawn) [Example 9.116, 6-{[(1R)-1-cyclobutylethyl]amino}-8-[2-(3-fluorophenyl)piperidin-1-yl]-7-[4-(trifluoromethyl)benzyl]-7H-purine-2-carboxylic acid] | 7.85
C[C@@H](Nc1nc(C(=O)O)nc2nc(N3CCCCC3c3ccc(F)cc3)n(Cc3ccc(C(F)(F)F)cc3)c12)C1CCC1 (stereo partly drawn) [Example 9.117, 6-{[(1R)-1-cyclobutylethyl]amino}-8-[2-(4-fluorophenyl)piperidin-1-yl]-7-[4-(trifluoromethyl)benzyl]-7H-purine-2-carboxylic acid] | 7.98
C[C@@H](Nc1nc(C(=O)O)nc2nc(N3CCOCC3)n(Cc3ccc(C(F)(F)F)cc3)c12)C1CCC1 [Example 9.118, 6-{[(1R)-1-cyclobutylethyl]amino}-8-morpholin-4-yl-7-[4-(trifluoromethyl)benzyl]-7H-purine-2-carboxylic acid] | 7.29
CC(C)C1CCCCN1c1nc2nc(C(=O)O)nc(N[C@H](C)C3CCC3)c2n1Cc1ccc(C(F)(F)F)cc1 (stereo partly drawn) [Example 9.119, 6-{[(1R)-1-cyclobutylethyl]amino}-8-[2-(1-methylethyl)piperidin-1-yl]-7-[4-(trifluoromethyl)benzyl]-7H-purine-2-carboxylic acid] | 8.04
CC(C)CC1CCCCN1c1nc2nc(C(=O)O)nc(N[C@H](C)C3CCC3)c2n1Cc1ccc(C(F)(F)F)cc1 (stereo partly drawn) [Example 9.120, 6-{[(1R)-1-cyclobutylethyl]amino}-8-[2-(2-methylpropyl)piperidin-1-yl]-7-[4-(trifluoromethyl)benzyl]-7H-purine-2-carboxylic acid] | 8.27
C[C@@H](Nc1nc(C(=O)O)nc2nc(N3CCc4ccccc4C3)n(Cc3ccc(C(F)(F)F)cc3)c12)C1CCC1 [Example 9.121, 6-{[(1R)-1-cyclobutylethyl]amino}-8-(3,4-dihydroisoquinolin-2(1H)-yl)-7-[4-(trifluoromethyl)benzyl]-7H-purine-2-carboxylic acid] | 7.98
C[C@@H](Nc1nc(C(=O)O)nc2nc(N3CCCCC3C3CCCCC3)n(Cc3ccc(C(F)(F)F)cc3)c12)C1CCC1 (stereo partly drawn) [Example 9.122, 6-{[(1R)-1-cyclobutylethyl]amino}-8-(2-cyclohexylpiperidin-1-yl)-7-[4-(trifluoromethyl)benzyl]-7H-purine-2-carboxylic acid] | 8.34
C[C@@H](Nc1nc(C(=O)O)nc2nc(NC(C)(C)c3ccccc3)n(Cc3ccc(C(F)(F)F)cc3)c12)C1CCC1 [Example 9.123, 6-{[(1R)-1-cyclobutylethyl]amino}-8-[(1-methyl-1-phenylethyl)amino]-7-[4-(trifluoromethyl)benzyl]-7H-purine-2-carboxylic acid] | 8.73
C[C@@H](Nc1nc(C(=O)O)nc2nc(N3CCCc4ccccc43)n(Cc3ccc(C(F)(F)F)cc3)c12)C1CCC1 [Example 9.124, 6-{[(1R)-1-cyclobutylethyl]amino}-8-(3,4-dihydroquinolin-1(2H)-yl)-7-[4-(trifluoromethyl)benzyl]-7H-purine-2-carboxylic acid] | 7.98
C[C@@H]1COCCN1c1nc2nc(-c3noc(=O)[nH]3)nc(N[C@H](C)C3CCC3)c2n1Cc1ccc(C(F)(F)F)cc1 [Example 9.125, 3-(6-{[(1R)-1-cyclobutylethyl]amino}-8-[(3R)-3-methylmorpholin-4-yl]-7-[4-(trifluoromethyl)benzyl]-7H-purin-2-yl)-1,2,4-oxadiazol-5(4H)-one] | 8.17
